Molecules are shown by their SMILES.

The subject of series [1] is G12D mutant KRAS-driven lung cancer. As to the kind of experiment: Genetically engineered LSL-KRASG12D mouse lung cancer model. In kind it is in vivo. An excerpt: Tumor numbers were counted under the microscope and tumor area was quantified using modular imaging software.
KRAS mutations are common genetic alterations in NSCLC and contribute to the resistance of lung cancer to conventional therapy. To test the potency of KRA-533 in mutant KRAS-driven lung cancer, lox-stop-lox (LSL)-KRASG12D mice were generated. By engineering LoxP DNA elements into the mouse genome that surround a synthetic ‘stop’ element (lox-stop-lox) inserted in front of mutant KRAS G12D, one can ‘turn-on’ mutant KRAS G12D with delivery of Cre recombinase. To control the expression of KRAS G12D, a LSL cassette was engineered into the first intron of the KRAS gene. The LSL cassette consists of transcriptional and translational stop elements flanked by LoxP sites that prevent the expression of the mutant allele until the stop elements are removed by the activity of Cre recombinase. To produce KRAS G12D mutant-driven lung cancer, alleles were induced in mouse lung using intranasal administration of a lentiviral Cre recombinase. Primary lung tumors developed around 12 weeks post-inoculation.
To assess whether KRA-533 has antitumor activity against G12D mutant KRAS-driven lung cancer in genetically engineered mouse models, KRA-533 (20 mg/kg/d) or vehicle control was administered i.p. starting at 10 weeks post AdeCre delivery. After treatment for 3 months, mice were euthanized for analysis of tumor burden. […] There were 3 deaths out of 8 mice in the control group versus 1 death out of 8 mice in the KRA-533 treatment group in four months before euthanization.

The subject of series [2] is A549 xenografts bearing mutant KRAS. As to the kind of experiment: A549 lung cancer xenografts bearing KRAS mutation (G12S). In kind it is in vivo. As to the method:
Tumor volume was measured once every 2 days (left panel). Tumor volumes of 6 individual mice in each group were compared on day 28 (right panel). After 28 days, the mice were sacrificed, and the tumors were removed and analyzed.
Expression levels of active caspase-3, cleaved PARP, Beclin-1 and LC3-II in tumor tissues were analyzed by Western blot.
To test the potency of KRA-533 in vivo, lung cancer xenografts derived from A549 cells bearing KRAS mutation (G12S) were treated with increasing doses (0, 7.5, 15, and 30 mg/kg/day) of KRA-533 i.p. for 28 days. […] To assess whether KRA-533 induced suppression of tumor growth via apoptosis and autophagy in vivo, representative samples from harvested tumor tissues were analyzed by immunohistochemistry (IHC) for active caspase-3 or LC3-II.

In series [3] the target is KRAS G13D (Homo sapiens, UniProt P01116, G13D). As to the kind of experiment: In vitro cell-free GDP-GTP exchange, KRAS G13D. In kind it is biochemical. Particulars: with GEF (RASGRP1) and GAP (RASA1), 25° C., 60 min. How it is done:
(§1) GTPγS, purified GFP (RASGRP1, 180 nM) and GAP (RASA1, 180 nM) at 25° C. in the presence or absence of increasing concentrations of KRA-533.
(§2) To test whether KRA-533 directly binds to KRAS, a thermal shift assay was employed. […] To further assess whether KRA-533 activates KRAS directly, an in vitro cell-free GDP-GTP exchange experiment was carried out. Purified WT, G12C, G12D or G13D mutant KRAS proteins were incubated with purified GEF (RASGRP1) and GAP (RASA1) proteins in reaction buffer containing [γ-35S]-GTP in the absence or presence of increasing concentrations of KRA-533 at 25° C. for 60 min. KRAS activity was quantified by liquid scintillation counting. […] These findings indicate that KRA-533 not only activates WT KRAS but also has the capacity to further enhance KRAS activity of mutant KRAS.

The target of series [4] is T1, KRAS G12C (Homo sapiens, UniProt P01116, G12C). Nature of the series: Thermal shift assay, purified KRAS G12C. In kind it is binding. To be noted: increasing concentrations. As to the method:
Melting temperature (Tm) values of DMSO Ctrl and 15 μM of KRA-533 are shown.
as §2

For series [5], the system named is A549, H157, Calu-1 and H292 cells. As to the kind of experiment: Apoptosis by FACS analysis of Annexin V/PI staining. In kind it is cell-based, human. As to the method: (§3) Activated KRAS can trigger cell death via apoptosis and autophagy-associated cell death in cancer cells. To test whether KRA-533- activated KRAS promotes apoptosis and autophagic cell death, A549, H157, Calu-1 and H292 cells were treated with increasing concentrations of KRA-533 for 48 h, followed by analysis of KRAS activity, apoptosis and autophagy. […] Autophagy was measured by analysis of LC3-I/LC3-II and p62 following treatment of cells with KRA-533. It is well known that p62 is an autophagy receptor or substrate that can be degraded by autophagy. In addition to LC3-II, p62 was analyzed as another autophagy marker. […] To further quantify the level of autophagy, a GFP-LC3 construct was used to indicate autophagosomes. After treatment with KRA-533, GFP-LC3 redistributed from a diffuse staining pattern in the cytoplasm and nucleus to a cytoplasmic punctate structure that specifically labels pre-autophagosomal and autophagosomal membranes (i.e. GFP-LC3 vac cells). […] These findings indicate that, in addition to apoptosis, KRA-533 can also induce autophagic cell death.
(In flow cytometry, cells or beads pass a laser one at a time.)

Series [6] concerns NSCLC cells. As to the kind of experiment: Colony formation assay. In kind it is cell-based, human. Particulars: 10 μM, 10 days; A549, H358, H157, Calu-1, H1972 vs H292, HCC827, H1975, H322.
The subject of series [7] is A549, H157, Calu-1 and H292 cells. Nature of the series: GFP-LC3 autophagosome quantification. In kind it is cell-based, human. Particulars: 48 h. As to the method:
After 24 h, cells were treated with KRA-533 for 48 h. The percentages of LC3-GFP-transfected cells bearing LC3-GFP aggregates (LC3-FGPvac) were quantified as shown.
as §3

Series [8] has as its target T1, KRAS G12C. As to the kind of experiment: In vitro cell-free GDP-GTP exchange, KRAS G12C. Particulars: with GEF (RASGRP1) and GAP (RASA1), 25° C., 60 min. In kind it is biochemical. How it is done: as §1, §2
Series [9] addresses T2, KRAS K117A (Homo sapiens, UniProt P01116, K117A).
T2 construct: made in house
As to the kind of experiment: Thermal shift assay, purified KRAS K117A. In kind it is binding. How it is done: Melting temperature (Tm) values of DMSO control and 15 μM KRA-533 are shown.
To further test this intracellularly, GFP-tagged WT, S17A, K117A and AA KRAS mutants were exogenously transfected into A549 cells. […] Activities of exogenous GFP-tagged WT and KRAS mutants were analyzed by Western blot using GFP antibody.

The mark [10] stands for this setting: 0, 7.5, 15, and 30 mg/kg/day i.p. for 28 days.

Turning to `O=C(CBr)NCCCCc1ccc(C(=O)O)cc1` [KRA-533, 4-(4-(2-bromoacetamido)butyl)benzoic acid], in series [1] (20 mg/kg/d i.p.), the “deaths in four months before euthanization” value is 1 death out of 8 mice; the “weight loss and normal tissue toxicity” value is given as “Slight weight loss but no significant normal tissue toxicity”. Besides, the “tumor burden and multiplicity in the lung” value in [1] (20 mg/kg/d i.p. from 10 weeks post AdeCre, four months) is “significant reduction of tumor burden and multiplicity in the lung”. For the same compound, the survival result in [1] (20 mg/kg/d i.p., compared with the control group) is recorded as “prolonged survival”. For the same compound, in series [2] (setting [10]), the “apoptosis and autophagy in tumor tissues (IHC active caspase-3, LC3-II)” value was “induced apoptosis and autophagy in tumor tissues in a dose-dependent manner”; the tumor growth result is “suppressed tumor growth in a dose-dependent manner”. In series [2] (7.5˜30 mg/kg/d), the “blood cells (WBC, RBC and PLT), BUN and ALT/AST” value is “in the normal range”; the body weight entry was “no weight loss”; the tolerability entry was “well tolerated without significant toxicity”. The “histopathology of normal tissues (brain, heart, lung, liver, spleen, kidney and intestine)” value in [2] (7.5˜30 mg/kg/day) is reported as “no evidence of normal tissue toxicities”. Also, in series [2] (tumor tissue lysates after 28 days), the “active KRAS in tumor tissues (Raf-1-RBD pull-down)” value is on record as “accumulation of active KRAS in tumor tissues”. The “KRAS activity (liquid scintillation), KRAS G13D” value in series [3] is listed as “further enhanced the activities of active KRAS mutants”. Also, the “melting temperature (Tm) / binding, KRAS G12C” value in series [4] is “Dose dependent increases in melting temperature (Tm)”. Also, the “apoptotic cell death (Annexin V/PI)” value in series [5] (0, 5, 10, 15 μM, 48 h) is reported as “leading to apoptotic cell death”. In addition, the “sensitivity to KRAS activation, induction of apoptosis and autophagy, KRAS mutant cells versus H292” value in [5] (A549, H157 and Calu-1 vs H292, 48 h) is listed as “significantly more sensitive than H292 cells without KRAS mutation”. In series [6], the “cell growth suppression (colony formation), KRAS mutant versus non-mutant cell lines” value is “relatively more sensitive to KRA-533-mediated cell growth suppression than those without KRAS mutation”. The “percentage of GFP-LC3vac cells” value in series [7] is listed as “enhanced the percentage of GFP-LC3vac cells in a dose-dependent manner”. In addition, in series [8], the “KRAS activity (liquid scintillation), KRAS G12C” value is listed as “further enhanced the activities of active KRAS mutants”. In addition, in series [9], the “binding (thermal shift), KRAS K117A” value is “failed to bind”.

The values are drawn from patent US12144791B2, “KRAS agonists, pharmaceutical compositions, and uses in managing cancer” (Emory University, priority 2019, dated 2024).
